Laboratory results from US20100173914A1, “PHARMACEUTICALS, COMPOSITIONS AND METHODS OF MAKING AND USING THE SAME” (priority 2007, published 2010).
pKi: −log10 of the molar value.

Tests used:
[1] = molecular target: T1, human adenosine A1 receptors (Homo sapiens, UniProt P30542); assay: Adenosine receptor binding: binding affinities at hA1 receptors ([3H]DPCPX displacement); details: displacement of [3H]DPCPX, membranes of CHO-K1 cells transfected with human A1
T1 construct: expressed in transfected cells; host or cells: CHO-K1
T1 sequence (P30542 1-326): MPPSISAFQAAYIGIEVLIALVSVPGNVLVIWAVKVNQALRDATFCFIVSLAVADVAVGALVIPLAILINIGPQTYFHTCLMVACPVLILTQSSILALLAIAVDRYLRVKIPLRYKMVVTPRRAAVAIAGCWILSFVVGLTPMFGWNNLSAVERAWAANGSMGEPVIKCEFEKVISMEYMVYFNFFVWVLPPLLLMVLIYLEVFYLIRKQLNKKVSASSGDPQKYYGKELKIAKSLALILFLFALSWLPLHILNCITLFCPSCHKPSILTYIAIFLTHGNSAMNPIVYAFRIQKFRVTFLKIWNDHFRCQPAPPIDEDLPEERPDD
Source text: Adenosine Receptor Binding: Binding Affinities at hA1 Receptors
The compounds were examined in an assay measuring in vitro binding to human adenosine A1 receptors by determining the displacement of the adenosine A1 receptor selective radioligand 8-Cyclopentyl-1,3-dipropylxanthine ([^3H]DPCPX) using standard techniques. See, for example, Lohse M J, et al., (1987), 8-Cyclopentyl-1,3-dipropylxanthine (DPCPX)—a selective high affinity antagonist radioligand for A1 adenosine receptors. Naunyn Schmiedebergs Arch Pharmacol., 336(2):204-10, which is incorporated by reference in its entirety.
Frozen CHO-K1 cells (transfected with a human adenosine A1 recepter expression vector) were homogenized in 130 mL of 50 mM Tris HCl buffer (pH 7.5) containing 10 mM MgCl2, and 0.1 IU/mL adenosine deaminase per pellet using a Ultra-Turrax homogeniser. The resultant homogenate was kept for immediate use in the binding. Binding assays were performed in a total volume of 250 μL, containing [^3H]-DPCPX (3.0 nM), membranes and additional drugs. Total binding was determined using drug dilution buffer (50 mM Tris-HCl pH:7.5, 10 mM MgCl2, 5% DMSO). Non-specific binding was determined using 300 μM N6-cyclohexyladenosine (CHA). Following incubation for 90 minutes at 21° C., assays were terminated by rapid filtration with GF/B filters (presoaked in 0.1% (w/v) polyethylenimine) using a Canberra Packard filtermate 196, washed 3 times with ice-cold Tris-HCl (pH 7.4). Filters were left to dry overnight, and Microscint-0 scintillation fluid was then added to the filters. The filters were then left for at least 2 hours before the radioactivity was assessed using a Canberra Packard TopCount microplate scintillation counter.
To determine the free ligand concentration, three vials were counted with 25 μL of [^3H]DPCPX containing 4 mL of Ultima-Gold MV scintillant on a Beckman LS6500 multi-purpose scintillation counter.
(§1) Data was analysed using a 4 parameter logistical equation and non-linear regression which yields affinity constants (pIC50), and slope parameters:
where E is the quantity of binding and [A] is the competitor concentration. The K, is then determined using the Cheng-Prusoff equation: […]

[2] = molecular target: T2, human adenosine A2A receptors (Homo sapiens, UniProt P29274); assay: Adenosine receptor binding: binding affinities at hA2A receptors ([3H]CGS-21680 displacement); details: for pKi: displacement of [3H]CGS-21680, HEK-293 cell membranes; for A2A/A1 selectivity ratio (Ki A2A/Ki A1): ratio of measured Ki values at hA2A and hA1
T2 construct: host or cells: HEK-293
Source text: Adenosine Receptor Binding: Binding Affinities at hA2A Receptors
The compounds were examined in an assay measuring in vitro binding to human adenosine A2A receptors by determining the displacement of the adenosine A2A receptor selective radioligand 4-[2-[[6-Amino-9-(N-ethyl-β-D-ribofuranuronamidosyl)-9H-purin-2-yl]amino]ethyl]benzenepropanoic acid hydrochloride ([^3H]CGS-21680) using standard techniques. See, for example, Jarvis et al., J Pharmacol Exp Ther., 251(3):888-93, which is incorporated by reference in its entirety.
Frozen HEK-293 cells were homogenized in 65 mL of 50 mM Tris HCl buffer (pH 7.5) containing 10 mM MgCl2, and 0.1 IU/mL adenosine deaminase per pellet using a Ultra-Turrax homogenizer. The resultant homogenate was kept for immediate use in the binding assay.
Binding assays were performed in a total volume of 250 μL, containing [^3H]-CGS21680 (20.0 nM), membranes and additional drugs. Total binding was determined using drug dilution buffer (50 mM Tris-HCl pH 7.5, 10 mM MgCl2, 5% DMSO). Non-specific binding was determined using 300 μM CHA. Following incubation for 90 minutes at 21° C., assays were terminated by rapid filtration with GF/B filters (presoaked in 0.1% (w/v) polyethylenimine) using a Canberra Packard filtermate 196, washed 3 times with ice-cold Tris-HCl (pH 7.4). Filters were left to dry overnight, and Microscint-0 scintillation fluid was then added to the filters. The filters were then left for at least 2 hours before the radioactivity was assessed using a Canberra Packard TopCount microplate scintillation counter.
To determine the free ligand concentration, three vials were counted with 25 μL of [^3H]CGS21680 containing 4 mL of Ultima-Gold MV scintillant on a Beckman LS6500 multi-purpose scintillation counter.
as §1
where E is the quantity of binding and [A] is the competitor concentration. The Ki is then determined using the Cheng-Prusoff equation: […]

T2 sequence (P29274 whole entry): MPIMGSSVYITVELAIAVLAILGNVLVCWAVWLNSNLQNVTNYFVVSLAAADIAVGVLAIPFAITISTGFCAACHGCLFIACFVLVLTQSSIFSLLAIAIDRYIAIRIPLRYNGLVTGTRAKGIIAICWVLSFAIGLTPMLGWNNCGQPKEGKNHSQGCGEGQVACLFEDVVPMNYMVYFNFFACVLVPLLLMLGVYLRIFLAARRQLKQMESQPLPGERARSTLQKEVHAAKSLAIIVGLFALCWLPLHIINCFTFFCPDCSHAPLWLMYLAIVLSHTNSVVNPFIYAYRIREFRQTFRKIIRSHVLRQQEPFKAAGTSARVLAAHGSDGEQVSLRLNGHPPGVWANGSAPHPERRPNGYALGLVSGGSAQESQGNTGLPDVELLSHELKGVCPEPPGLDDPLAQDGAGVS

Row | pKi [1] | pKi [2] | A2A/A1 selectivity ratio (Ki A2A/Ki A1) [2] | Structure (SMILES)
1 | 5.00 to 6.00 | 6.00 to 7.00 | H (more than 20) | COc1cc(NS(=O)(=O)O)ccc1Cn1nnc2c(-c3ccc(C)o3)nc(N)nc21
2 | 5.00 to 6.00 | 5.00 to 6.00 | E (less than 5) | COc1ccccc1-c1nc(N)nc2c1nnn2Cc1cccc(NS(=O)(=O)O)c1 [3-[(5-amino-7-(2-methoxyphenyl)-3H-[1,2,3]triazolo[4,5-d]pyrimidin-3-yl)methyl]-phenylsulfamic acid]
3 | 6.00 to 7.00 | ≥ 7.00 | H (more than 20) | Cc1ccc(-c2nc(N)nc3c2nnn3Cc2cccc(NS(=O)(=O)O)c2)o1 [3-[(5-amino-7-(5-methylfuran-2-yl)-3H-[1,2,3]triazolo[4,5-d]pyrimidin-3-yl)methyl]phenylsulfamic acid]
4 | 5.00 to 6.00 | 6.00 to 7.00 | H (more than 20) | Nc1nc(-c2ccco2)c2nnn(Cc3cccc(NS(=O)(=O)O)c3)c2n1 [3-[(5-amino-7-(furan-2-yl)-3H-[1,2,3]triazolo[4,5-d]pyrimidin-3-yl)methyl]-phenylsulfamic acid]
5 | 5.00 to 6.00 | 6.00 to 7.00 | G (10 to 20) | Nc1nc(-c2cccs2)c2nnn(Cc3cccc(NS(=O)(=O)O)c3)c2n1 [3-[(5-amino-7-(thiophen-2-yl)-3H-[1,2,3]triazolo[4,5-d]pyrimidin-3-yl)methyl]-phenylsulfamic acid]
6 | 5.00 to 6.00 | ≥ 7.00 | G (10 to 20) | Nc1nc(-c2ccccc2)c2nnn(Cc3cccc(NS(=O)(=O)O)c3)c2n1 [3-[(5-amino-7-phenyl-3H-[1,2,3]triazolo[4,5-d]pyrimidin-3-yl)methyl]-phenylsulfamic acid]
7 | < 5.00 | < 5.00 | E (less than 5) | COc1cc(Cn2nnc3c(-c4ccccc4OC)nc(N)nc32)ccc1NS(=O)(=O)O [4-[(5-amino-7-(2-methoxyphenyl)-3H-[1,2,3]triazolo[4,5-d]pyrimidin-3-yl)methyl]-2-methoxyphenylsulfamic acid]
8 | < 5.00 | 5.00 to 6.00 | E (less than 5) | COc1ccccc1-c1nc(N)nc2c1nnn2Cc1ccc(NS(=O)(=O)O)c(C)c1 [4-[(5-amino-7-(2-methoxyphenyl)-3H-[1,2,3]triazolo[4,5-d]pyrimidin-3-yl)methyl]-2-methylphenylsulfamic acid]
9 | < 5.00 | 5.00 to 6.00 | E (less than 5) | COc1cc(NS(=O)(=O)O)ccc1Cn1nnc2c(-c3ccccc3OC)nc(N)nc21 [4-[(5-amino-7-(2-methoxyphenyl)-3H-[1,2,3]triazolo[4,5-d]pyrimidin-3-yl)methyl]-3-methoxyphenylsulfamic acid]
10 | < 5.00 | 5.00 to 6.00 | E (less than 5) | COc1ccccc1-c1nc(N)nc2c1nnn2Cc1ccc(NS(=O)(=O)O)cc1 [4-[(5-amino-7-(2-methoxyphenyl)-3H-[1,2,3]triazolo[4,5-d]pyrimidin-3-yl)methyl]phenylsulfamic acid]
11 | 6.00 to 7.00 | ≥ 7.00 | H (more than 20) | COc1cc(Cn2nnc3c(-c4ccc(C)o4)nc(N)nc32)ccc1NS(=O)(=O)O [4-[(5-amino-7-(5-methylfuran-2-yl)-3H-[1,2,3]triazolo[4,5-d]pyrimidin-3-yl)methyl]-2-methoxyphenylsulfamic acid]
12 | 6.00 to 7.00 | ≥ 7.00 | H (more than 20) | Cc1ccc(-c2nc(N)nc3c2nnn3Cc2ccc(NS(=O)(=O)O)c(C)c2)o1 [4-[(5-amino-7-(5-methylfuran-2-yl)-3H-[1,2,3]triazolo[4,5-d]pyrimidin-3-yl)methyl]-2-methylphenylsulfamic acid]
13 | 5.00 to 6.00 | ≥ 7.00 | H (more than 20) | Cc1ccc(-c2nc(N)nc3c2nnn3Cc2ccc(NS(=O)(=O)O)cc2)o1 [4-[(5-amino-7-(5-methylfuran-2-yl)-3H-[1,2,3]triazolo[4,5-d]pyrimidin-3-yl)methyl]phenylsulfamic acid]
14 | < 5.00 | 5.00 to 6.00 | G (10 to 20) | COc1cc(Cn2nnc3c(-c4ccco4)nc(N)nc32)ccc1NS(=O)(=O)O [4-[(5-amino-7-(furan-2-yl)-3H-[1,2,3]triazolo[4,5-d]pyrimidin-3-yl)methyl]-2-methoxyphenylsulfamic acid]
15 | 6.00 to 7.00 | ≥ 7.00 | H (more than 20) | Cc1cc(Cn2nnc3c(-c4ccco4)nc(N)nc32)ccc1NS(=O)(=O)O [4-[(5-amino-7-(furan-2-yl)-3H-[1,2,3]triazolo[4,5-d]pyrimidin-3-yl)methyl]-2-methylphenylsulfamic acid]
16 | < 5.00 | 6.00 to 7.00 | G (10 to 20) | COc1cc(NS(=O)(=O)O)ccc1Cn1nnc2c(-c3ccco3)nc(N)nc21 [4-[(5-amino-7-(furan-2-yl)-3H-[1,2,3]triazolo[4,5-d]pyrimidin-3-yl)methyl]-3-methoxyphenylsulfamic acid]
17 | 5.00 to 6.00 | ≥ 7.00 | H (more than 20) | Nc1nc(-c2ccco2)c2nnn(Cc3ccc(NS(=O)(=O)O)cc3)c2n1 [4-[(5-amino-7-(furan-2-yl)-3H-[1,2,3]triazolo[4,5-d]pyrimidin-3-yl)methyl]phenylsulfamic acid]
18 | 5.00 to 6.00 | 6.00 to 7.00 | G (10 to 20) | Nc1nc(-c2ccccc2)c2nnn(Cc3ccc(NS(=O)(=O)O)cc3)c2n1 [4-[(5-amino-7-(phenyl,2,3]triazolo[4,5-d]pyrimidin-3-yl)methyl]phenylsulfamic acid]
19 | 5.00 to 6.00 | 6.00 to 7.00 | H (more than 20) | COc1cc(Cn2nnc3c(-c4cccs4)nc(N)nc32)ccc1NS(=O)(=O)O [4-[(5-amino-7-(thiophen-2-yl)-3H-[1,2,3]triazolo[4,5-d]pyrimidin-3-yl)methyl]-2-methoxyphenylsulfamic acid]
20 | 6.00 to 7.00 | ≥ 7.00 | H (more than 20) | Cc1cc(Cn2nnc3c(-c4cccs4)nc(N)nc32)ccc1NS(=O)(=O)O [4-[(5-amino-7-(thiophen-2-yl)-3H-[1,2,3]triazolo[4,5-d]pyrimidin-3-yl)methyl]-2-methylphenylsulfamic acid]
21 | < 5.00 | 5.00 to 6.00 | F (5 to 10) | COc1cc(NS(=O)(=O)O)ccc1Cn1nnc2c(-c3cccs3)nc(N)nc21 [4-[(5-amino-7-(thiophen-2-yl)-3H-[1,2,3]triazolo[4,5-d]pyrimidin-3-yl)methyl]-3-methoxyphenylsulfamic acid]
